According to US11142533B2, “Macrocycles for use in treating disease” (TURNING POINT THERAPEUTICS, INC., priority 2019, dated 2021):

Key:
[1] = target: T1, Ba/F3 cell-derived tumors with the EML4-ALK L1198F/G1202R fusion (Homo sapiens, UniProt Q9UM73, G1202R/L1198F)
T1 sequence (Q9UM73 with tags, fused parts or gaps L1198F/G1202R): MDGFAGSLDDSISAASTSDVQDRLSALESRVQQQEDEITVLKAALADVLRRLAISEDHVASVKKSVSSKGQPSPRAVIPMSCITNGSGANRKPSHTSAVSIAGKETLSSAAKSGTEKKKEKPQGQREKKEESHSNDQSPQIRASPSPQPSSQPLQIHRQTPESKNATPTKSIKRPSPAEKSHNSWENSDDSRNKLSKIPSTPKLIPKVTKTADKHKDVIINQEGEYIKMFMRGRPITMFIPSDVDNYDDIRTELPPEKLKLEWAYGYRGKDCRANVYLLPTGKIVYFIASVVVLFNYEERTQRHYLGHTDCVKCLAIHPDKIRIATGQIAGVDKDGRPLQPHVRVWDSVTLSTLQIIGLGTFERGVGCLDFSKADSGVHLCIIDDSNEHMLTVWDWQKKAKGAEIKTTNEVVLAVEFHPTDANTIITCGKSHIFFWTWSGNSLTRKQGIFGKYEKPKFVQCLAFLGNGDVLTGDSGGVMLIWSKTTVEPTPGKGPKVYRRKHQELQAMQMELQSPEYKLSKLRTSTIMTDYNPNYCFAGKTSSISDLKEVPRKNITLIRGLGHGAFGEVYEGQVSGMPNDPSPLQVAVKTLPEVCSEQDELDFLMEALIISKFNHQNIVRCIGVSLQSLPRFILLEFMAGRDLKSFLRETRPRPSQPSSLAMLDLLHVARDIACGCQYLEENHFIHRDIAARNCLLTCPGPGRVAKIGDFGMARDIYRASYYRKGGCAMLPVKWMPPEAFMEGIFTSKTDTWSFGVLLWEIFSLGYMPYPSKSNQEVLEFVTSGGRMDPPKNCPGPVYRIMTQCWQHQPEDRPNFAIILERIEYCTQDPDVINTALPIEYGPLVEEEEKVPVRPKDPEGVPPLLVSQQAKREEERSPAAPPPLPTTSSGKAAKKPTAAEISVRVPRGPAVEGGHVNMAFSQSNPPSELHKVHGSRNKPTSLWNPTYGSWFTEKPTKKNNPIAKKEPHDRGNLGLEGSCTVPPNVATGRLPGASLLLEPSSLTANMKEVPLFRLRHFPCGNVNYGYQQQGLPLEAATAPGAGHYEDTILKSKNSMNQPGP

ALK (F1174L) = target: T2, ALK (F1174L) (Homo sapiens, UniProt Q9UM73, F1174L); experiment: Biochemical kinase assay (Reaction Biology); settings: 10 μM ATP
T2 construct: purchased Reaction Biology Corporation (contract assay)

ALK (delete G1202) = target: T3, ALK (delete G1202) (Homo sapiens, UniProt Q9UM73, DEL1202-1202); experiment: Biochemical kinase assay (Reaction Biology); settings: 10 μM ATP
T3 construct: purchased Reaction Biology Corporation (contract assay)
T3 sequence (Q9UM73 with tags, fused parts or gaps DEL1202-1202): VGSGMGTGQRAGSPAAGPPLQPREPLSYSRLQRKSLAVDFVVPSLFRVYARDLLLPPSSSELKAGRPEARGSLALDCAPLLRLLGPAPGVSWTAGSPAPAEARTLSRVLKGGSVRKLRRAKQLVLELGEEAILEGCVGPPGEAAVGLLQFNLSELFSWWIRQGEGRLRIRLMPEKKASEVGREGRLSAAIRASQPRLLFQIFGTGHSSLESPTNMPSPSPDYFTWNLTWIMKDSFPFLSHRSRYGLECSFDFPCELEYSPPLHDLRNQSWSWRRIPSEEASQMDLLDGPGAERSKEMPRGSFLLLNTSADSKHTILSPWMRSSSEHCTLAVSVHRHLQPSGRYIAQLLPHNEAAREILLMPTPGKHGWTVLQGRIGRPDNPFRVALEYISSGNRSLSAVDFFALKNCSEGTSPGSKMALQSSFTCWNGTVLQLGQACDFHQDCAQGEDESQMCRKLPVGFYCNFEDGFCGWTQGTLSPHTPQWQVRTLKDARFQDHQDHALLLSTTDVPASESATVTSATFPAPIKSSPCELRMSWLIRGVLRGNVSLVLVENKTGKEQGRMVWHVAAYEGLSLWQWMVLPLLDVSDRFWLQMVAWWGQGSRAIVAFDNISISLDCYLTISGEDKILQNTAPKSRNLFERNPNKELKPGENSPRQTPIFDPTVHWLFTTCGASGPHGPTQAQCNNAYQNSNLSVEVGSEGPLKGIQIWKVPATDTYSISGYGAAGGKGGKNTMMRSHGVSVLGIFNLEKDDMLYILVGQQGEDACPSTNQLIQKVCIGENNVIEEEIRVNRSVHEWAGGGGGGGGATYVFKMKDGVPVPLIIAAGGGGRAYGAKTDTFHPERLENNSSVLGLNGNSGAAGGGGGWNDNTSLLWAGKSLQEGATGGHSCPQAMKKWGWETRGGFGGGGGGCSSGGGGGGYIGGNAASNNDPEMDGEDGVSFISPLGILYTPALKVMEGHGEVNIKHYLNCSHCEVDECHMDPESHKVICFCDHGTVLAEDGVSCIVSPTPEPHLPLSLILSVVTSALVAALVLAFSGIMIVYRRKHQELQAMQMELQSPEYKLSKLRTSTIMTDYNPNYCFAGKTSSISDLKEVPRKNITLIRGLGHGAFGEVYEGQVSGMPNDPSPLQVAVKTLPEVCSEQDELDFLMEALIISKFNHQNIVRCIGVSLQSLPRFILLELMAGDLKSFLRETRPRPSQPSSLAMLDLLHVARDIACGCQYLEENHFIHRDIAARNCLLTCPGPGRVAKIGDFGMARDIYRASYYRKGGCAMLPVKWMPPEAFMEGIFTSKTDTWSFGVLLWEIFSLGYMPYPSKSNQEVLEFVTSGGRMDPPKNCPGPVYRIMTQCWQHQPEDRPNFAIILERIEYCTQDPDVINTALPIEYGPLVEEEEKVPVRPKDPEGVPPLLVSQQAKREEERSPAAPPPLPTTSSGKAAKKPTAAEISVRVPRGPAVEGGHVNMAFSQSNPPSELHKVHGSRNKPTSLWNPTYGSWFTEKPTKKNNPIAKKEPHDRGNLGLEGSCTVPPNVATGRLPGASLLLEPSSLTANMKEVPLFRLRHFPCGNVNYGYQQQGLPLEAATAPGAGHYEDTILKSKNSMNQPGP

T2 sequence (Q9UM73 19-1620 F1174L): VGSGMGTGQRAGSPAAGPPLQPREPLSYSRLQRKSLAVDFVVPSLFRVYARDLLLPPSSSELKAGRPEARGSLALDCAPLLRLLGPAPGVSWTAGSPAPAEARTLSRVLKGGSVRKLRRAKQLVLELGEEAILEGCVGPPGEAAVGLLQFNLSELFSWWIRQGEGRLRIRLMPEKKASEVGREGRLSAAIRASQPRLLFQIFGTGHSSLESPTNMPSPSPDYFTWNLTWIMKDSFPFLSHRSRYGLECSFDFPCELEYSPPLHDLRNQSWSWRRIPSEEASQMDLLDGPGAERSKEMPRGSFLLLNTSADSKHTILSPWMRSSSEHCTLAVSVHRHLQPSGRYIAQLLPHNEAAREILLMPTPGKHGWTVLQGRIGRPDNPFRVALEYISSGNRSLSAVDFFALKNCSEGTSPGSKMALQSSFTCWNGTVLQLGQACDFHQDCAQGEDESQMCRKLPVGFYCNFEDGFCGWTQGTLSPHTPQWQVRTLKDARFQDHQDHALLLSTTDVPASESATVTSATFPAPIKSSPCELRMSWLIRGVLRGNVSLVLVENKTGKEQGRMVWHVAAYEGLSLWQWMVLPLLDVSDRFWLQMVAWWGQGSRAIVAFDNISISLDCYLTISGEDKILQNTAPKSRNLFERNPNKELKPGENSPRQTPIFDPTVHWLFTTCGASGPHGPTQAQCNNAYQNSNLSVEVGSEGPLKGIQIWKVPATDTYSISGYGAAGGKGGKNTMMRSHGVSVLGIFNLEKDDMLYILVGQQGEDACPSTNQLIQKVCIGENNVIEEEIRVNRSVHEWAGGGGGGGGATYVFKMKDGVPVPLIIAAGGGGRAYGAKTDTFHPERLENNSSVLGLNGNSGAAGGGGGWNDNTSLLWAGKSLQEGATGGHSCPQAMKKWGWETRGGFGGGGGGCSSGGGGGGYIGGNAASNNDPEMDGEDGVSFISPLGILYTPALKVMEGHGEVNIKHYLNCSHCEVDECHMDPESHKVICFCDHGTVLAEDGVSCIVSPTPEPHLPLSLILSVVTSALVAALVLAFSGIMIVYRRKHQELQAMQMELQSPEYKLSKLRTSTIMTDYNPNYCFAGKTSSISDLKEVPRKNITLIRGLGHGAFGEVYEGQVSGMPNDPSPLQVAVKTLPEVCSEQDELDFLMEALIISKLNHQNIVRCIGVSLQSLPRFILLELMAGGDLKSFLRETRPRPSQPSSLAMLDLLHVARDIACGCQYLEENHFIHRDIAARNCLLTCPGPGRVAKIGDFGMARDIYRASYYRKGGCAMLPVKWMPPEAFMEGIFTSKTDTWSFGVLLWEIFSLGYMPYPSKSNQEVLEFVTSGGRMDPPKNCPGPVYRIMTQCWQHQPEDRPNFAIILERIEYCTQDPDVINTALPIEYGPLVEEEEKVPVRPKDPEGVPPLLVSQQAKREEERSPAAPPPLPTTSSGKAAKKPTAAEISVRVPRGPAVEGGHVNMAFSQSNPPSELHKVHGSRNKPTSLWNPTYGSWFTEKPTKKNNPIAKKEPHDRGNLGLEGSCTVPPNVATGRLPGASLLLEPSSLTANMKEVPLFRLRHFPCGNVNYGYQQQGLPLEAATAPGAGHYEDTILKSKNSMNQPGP

Tumor growth inhibition (TGI) ([1]; all three dose levels of 2, 5, and 10 mg/kg BID, after 7 days of treatment) [%]	tumor response at the end of study ([1]; all three groups (2, 5, 10 mg/kg BID), day 14 post inoculation)	IC50 (ALK (F1174L)) [nM]	IC50 (ALK (delete G1202)) [nM]	Structure (SMILES)	body weight ([1]; 2, 5, 10 mg/kg BID, after 7 days of treatment)
200	complete regression			CC1(C)COc2ccc(F)cc2CN2c3nc4c(cnn4cc3OC[C@H]2C(F)F)C(=O)N1 [Compound 1, (4S)-4-(Difluoromethyl)-8-fluoro-13,13-dimethyl-3,4,13,14-tetrahydro-6H-18,1-(metheno)[1,4]oxazino[3,4-i]pyrazolo[4,3-f][1,4,8,10]benzoxatriazacyclotridecin-15(12H)-one]	no body weight loss
		0.42	0.45	O=C1NCC2(CC2)COc2ccc(F)cc2CN2c3nc4c1cnn4cc3OC[C@H]2C(F)F [Compound 2, (16′S)-16′-(Difluoromethyl)-12′-fluoro-4′H,5′H,6′H,8′H,14′H,16′H,17′H-spiro[cyclopropane-1,7′-[1,19](metheno)[1,4]oxazino[3,4-j]pyrazolo[4,3-g][1,5,9,11]benzoxatriazacyclotetradecin]-4′-one]	
